Test results: patent publication US20250288589A1, “PYRIDOPYRIMIDINES AND METHODS OF THEIR USE” (Kineta, Inc., priority 2021, published 2025)

How the values were obtained:
[1] = tested on: PIKFYVE TDP-43 yeast strain; test: Propidium iodide viability assay in PIKFYVE TDP-43 yeast strain; type: cell-based
Description: Generation of TDP-43 yeast model expressing human PIKfyve. Human PIKFYVE (“entry clone”) was cloned into pAG416GPDccdB (“destination vector”) according to standard Gateway cloning protocols (Invitrogen, Life Technologies). The resulting pAG416GPD-PIKFYVE plasmids were amplified in E. coli and plasmid identity confirmed by restriction digest and Sanger sequencing. Lithium acetate/polyethylene glycol-based transformation was used to introduce the above PIKFYVE plasmid into a BY4741 yeast strain auxotrophic for the ura3 gene and deleted for two transcription factors that regulate the xenobiotic efflux pumps, a major efflux pump, and FAB1, the yeast ortholog of PIKFYVE (MATa, snq2::KILeu2; pdr3::Klura3;pdr1::NATMX; fab1::G418^R, his3;leu2;ura3;met15;LYS2+) (FIG. 2).
Transformed yeast were plated on solid agar plates with complete synthetic media lacking uracil (CSM-ura) and containing 2% glucose. Individual colonies harboring the control or PIKFYVE TDP-43 plasmids were recovered. A plasmid containing wild-type TDP-43 under the transcriptional control of the GAL1 promoter and containing the hygromycin-resistance gene as a selectable marker was transformed into the fab1::G418^R pAG416GPD-PIKFYVE yeast strain (FIG. 1). Transformed yeast were plated on CSM-ura containing 2% glucose and […] after overnight recovery in media lacking antibiotic. Multiple independent isolates were further evaluated for cytotoxicity and TDP-43 expression levels.
Viability Assay. A control yeast strain with the wild-type yeast FAB1 gene and TDP-43 (“FAB1 TDP-43”, carries empty pAG416 plasmid), and the “PIKFYVE TDP-43” yeast strain, were assessed for toxicity using a propidium iodide viability assay. Both yeast strains were transferred from solid CSM-ura/2% glucose agar plates into 3 mL of liquid CSM-ura/2% glucose media for 6-8 hours at 30° C. with aeration. Yeast cultures were then diluted to an optical density at 600 nm wavelength (OD600) of 0.005 in 3 mL of CSM-ura/2% raffinose and grown overnight at 30° C. with aeration to an OD600 of 0.3-0.8. Log-phase overnight cultures were diluted to OD600 of 0.005 in CSM-ura containing either 2% raffinose or galactose and 150 μL dispensed into each well of a flat bottom 96-well plates. Compounds formulated in 100% dimethyl sulfoxide (DMSO) were serially diluted in DMSO and 1.5 μL diluted compound transferred to the 96-well plates using a multichannel pipet. Wells containing DMSO alone were also evaluated as controls for compound effects. Tested concentrations ranged from 15 μM to 0.11 μM. Cultures were immediately mixed to ensure compound distribution and covered plates incubated at 30° C. for 24 hours in a stationary, humified incubator.
Upon the completion of incubation, cultures were assayed for viability using propidium iodide (PI) to stain for dead/dying cells. A working solution of PI was made where, for each plate, 1 μL of 10 mM PI was added to 10 mL of CSM-ura (raffinose or galactose). The final PI solution (50 μL/well) was dispensed into each well of a new round bottom 96-well plate. The overnight 96-well assay plate was then mixed with a multichannel pipet and 50 μL transferred to the PI-containing plate. This plate was then incubated for 30 minutes at 30° C. in the dark. A benchtop flow cytometer (Miltenyi MACSquant) was then used to assess red fluorescence (B2 channel), forward scatter, and side scatter (with following settings: gentle mix, high flow rate, fast measurement, 10,000 events). Intensity histograms were then gated for “PI-positive” or “PI-negative” using the raffinose and galactose cultures treated with DMSO as controls. The DMSO controls for raffinose or galactose-containing cultures were used to determine the window of increased cell death and this difference set to 100. All compounds were similarly gated and then compared to this maximal window to establish the percent reduction in PI-positive cells.

FAB1 TDP-43 yeast strain = test: Propidium iodide viability assay in FAB1 TDP-43 control yeast strain; type: cell-based; conditions: across a range of compound concentrations (FIG. 5, 0.23 μM shown)
Protocol: Generation of TDP-43 yeast model expressing human PIKfyve. Human PIKFYVE (“entry clone”) was cloned into pAG416GPDccdB (“destination vector”) according to standard Gateway cloning protocols (Invitrogen, Life Technologies). The resulting pAG416GPD-PIKFYVE plasmids were amplified in E. coli and plasmid identity confirmed by restriction digest and Sanger sequencing. […]
Transformed yeast were plated on solid agar plates with complete synthetic media lacking uracil (CSM-ura) and containing 2% glucose. […] Multiple independent isolates were further evaluated for cytotoxicity and TDP-43 expression levels.
Viability Assay. A control yeast strain with the wild-type yeast FAB1 gene and TDP-43 (“FAB1 TDP-43”, carries empty pAG416 plasmid), and the “PIKFYVE TDP-43” yeast strain, were assessed for toxicity using a propidium iodide viability assay. […] Wells containing DMSO alone were also evaluated as controls for compound effects. […]
Upon the completion of incubation, cultures were assayed for viability using propidium iodide (PI) to stain for dead/dying cells. […] A benchtop flow cytometer (Miltenyi MACSquant) was then used to assess red fluorescence (B2 channel), forward scatter, and side scatter (with following settings: gentle mix, high flow rate, fast measurement, 10,000 events). […]

Cc1cccc(/C=N/Nc2cc(N3CCOCC3)n3nc(-c4ccncc4)cc3n2)c1 [APY0201, reference compound]
propidium iodide-positive dead cells in PIKFYVE TDP-43 model ([1]; 0.23 μM (FIG. 6)): reduced the population of propidium iodide-positive dead cells | concentrations that afforded increased viability ([1]; PIKFYVE TDP-43 model): 0.5 mM to less than 100 nM | viable cells in FAB1 TDP-43 (FAB1 TDP-43 yeast strain): no increase in viable cells
